{"source": "patent US11147790B2", "about": "“Treatment of cutaneous disorders” (Verrica Pharmaceuticals Inc., priority 2017, dated 2021)", "assay": "Phase II clinical trial, systemic exposure evaluation (plasma concentration of cantharidin) after topical application to Molluscum contagiosum lesions", "type": "in vivo, human", "protocol": "This example describes pharmacokinetic results from a Phase II clinical trial for the treatment of skin lesion resulting from Molluscum contagiosum. Patients received administrations of the cantharidin composition in Table 9 to Molluscum contagiosum lesions every 21 days for a maximum of 4 sessions or until complete clearance. Blood samples for systemic exposure evaluation were collected on Day 1, prior to the drug application, and 2 (+30 minutes), 6 (+1 hour) and 24 (±3 hours) hours post-application. The average age of the subjects was 7±3.5 years. The average body weight of the subjects was 58±34.6 lb. The average number of lesions per subject was 43.7±24.2.\nThe plasma concentration of cantharidin for all subjects was less than 3.3 ng/ml at all times sampled.", "note": "Values joined by “and” are separate entries in the source; they are usually repeats but may differ in a detail not shown here. Identical values can stand only once.", "data": [{"smiles": "C[C@@]12C(=O)OC(=O)[C@]1(C)[C@H]1CC[C@@H]2O1", "note": "[cantharidin]", "values": [{"measurement": "plasma concentration of cantharidin for all subjects at all times sampled", "setting": "all seventeen subjects, 2, 6 and 24 hours post-application, composition of Table 9, topical", "value": "less than 3.3 ng/ml"}, {"measurement": "Exposure", "setting": "plasma cantharidin per individual subject, cantharidin composition of Table 9 applied topically to Molluscum contagiosum lesions, blood collected Day 1 at 2, 6 and 24 hours post-application, lower limit of quantification 2.5 ng/ml", "value": "<2.5 ng/ml (16×) and 3.3 ng/ml"}, {"measurement": "plasma concentration of cantharidin below the lower limit of quantification", "setting": "subjects as young as 2 years old, having over 100 lesions, having genital lesions, with as many as 2.26 lesions per lb, LLOQ 2.5 ng/ml, only one of seventeen subjects above LLOQ", "value": "< 2.5", "unit": "ng/mL"}]}]}
